Reference: patent publication US10988465B2, “CXCR4 inhibitors and uses thereof” (X4 Pharmaceuticals, Inc., priority 2016, dated 2021)

Tests used:
in vitro = conditions: human, Caco-2, pH 7.4
How it was run: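 Bidirectional permeability across Caco-2 monolayers in HBSS (pH 7.4) at a test concentration of 10 μM, incubated 0 and 90 min at 37° C (n=2). Monolayer integrity was assessed by TEER and Lucifer yellow. Papp was derived from LC-MS/MS-measured concentrations.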

[1] = biological target: T1, Jurkat cells expressing CXCR4 (Homo sapiens, UniProt P61073); assay: Chemokine (CXCL12-AF647) binding inhibition assay; conditions: CXCL12-AF647 25 ng/mL, read-out: IC50 CXCL-12 binding Jurkat
T1 construct: endogenous in cells; host or cells: Jurkat
T1 sequence (P61073 whole entry): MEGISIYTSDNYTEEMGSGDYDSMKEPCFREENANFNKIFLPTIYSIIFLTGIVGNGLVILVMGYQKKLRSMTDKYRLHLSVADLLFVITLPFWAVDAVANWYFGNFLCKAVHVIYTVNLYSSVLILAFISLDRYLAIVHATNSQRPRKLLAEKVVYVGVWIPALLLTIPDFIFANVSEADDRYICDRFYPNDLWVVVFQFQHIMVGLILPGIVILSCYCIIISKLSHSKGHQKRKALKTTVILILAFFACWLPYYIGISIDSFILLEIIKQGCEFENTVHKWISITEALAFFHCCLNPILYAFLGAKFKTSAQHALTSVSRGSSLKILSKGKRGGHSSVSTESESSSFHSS
How it was run: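 Cells in HBSS, 20 mM HEPES, 0.2% BSA, pH 7.4, preincubated 15 min at room temperature with compound, then 25 ng/mL CXCL12-AF647 for 30 min. After washing and paraformaldehyde fixation, bound ligand read by flow cytometry; percent inhibition calculated from MFI relative to unlabeled and ligand-only controls.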

[2] = biological target: T2, CXCR-4 transfected U87 cell line (U87.CXCR4) (Homo sapiens, UniProt P61073); assay: Intracellular CXCL-12-induced calcium mobilization assay (FLIPR); assay type: cell-based; conditions: U87.CXCR4 cells; CXCL-12 25-50 ng/mL; compound added 15 min before; read-out: IC50 CXCL-12 Ca^2+ flux U87.CXCR4+
T2 construct: expressed in transfected cells; host or cells: U87 (U87.CXCR4)
T2 sequence (P61073 whole entry): as above
How it was run: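 CXCL-12 (25-50 ng/mL) was the stimulus, and the intracellular calcium rise was tracked kinetically by FLIPR at 37 °C. Cells were U87.CXCR4 transfectants pre-loaded 45 min at 37 °C with 4 μM (final) Fluo-2 AM in HEPES-buffered HBSS with 0.2% BSA, pH 7.4.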

Papp A→B at 90 min, 10 μM (in vitro) [×10⁻⁶ cm/s] | Papp B→A at 90 min, 10 μM (in vitro) [×10⁻⁶ cm/s] | efflux ratio at 90 min, 10 μM (in vitro) | IC50 [1] [nM] | IC50 [2] [nM] | Structure (SMILES)
10 to 30 | 10 to 30 | 0.1 to 10 | 0.01 to 100 | 0.01 to 100 | Cc1cccnc1[C@@H]1CCC[C@H](c2nc3cccc(N4C[C@@H](C)N(C)[C@@H](C)C4)c3[nH]2)N1C [I-54]
10 to 30 | 10 to 30 | 0.1 to 10 | 0.01 to 100 | 100 to 1000 | CN1CCN(c2cccc3nc([C@H]4CCC[C@@H](c5nccc6occc56)N4C)[nH]c23)CC1 [I-92]
10 to 30 | 10 to 30 | 0.1 to 10 | 0.01 to 100 | 0.01 to 100 | Cc1cccnc1[C@@H]1CCC[C@H](c2nc3cccc(N4CCN(C)C(C)C4)c3[nH]2)N1C (stereo partly shown) [I-53]
0.1 to 10 | 10 to 30 | 0.1 to 10 | 0.01 to 100 | 0.01 to 100 | Cc1cccnc1[C@@H]1CCC[C@H](c2nc3cccc(C4CCN(C)CC4)c3[nH]2)N1C [I-34]
10 to 30 | 10 to 30 | 0.1 to 10 | 0.01 to 100 | 0.01 to 100 | Cc1cccnc1[C@@H]1CCC[C@H](c2nc3ccccc3[nH]2)N1Cc1ccccc1-n1cccn1 [I-21, 2-((2R,6S)-1-(2-(1H-pyrazol-1-yl)benzyl)-6-(3-methylpyridin-2-yl)piperidin-2-yl)-1H-benzo[d]imidazole]
0.1 to 10 | 10 to 30 | 10 to 30 | 0.01 to 100 | 0.01 to 100 | Cc1cccnc1[C@@H]1CCC[C@H](c2nc3cccc(N4CCNC(C)C4)c3[nH]2)N1C (stereo partly shown) [I-50]
0.1 to 10 | 10 to 30 | 0.1 to 10 | 0.01 to 100 | 0.01 to 100 | Cc1cccnc1[C@@H]1CCC[C@H](c2nc3cccc(N4CCN(C)CC4)c3n2C)N1 [I-123]
0.1 to 10 | 10 to 30 | 0.1 to 10 | 0.01 to 100 | 0.01 to 100 | Cc1cccnc1[C@@H]1CCC[C@H](c2nc3cccc(OC4CCN(C(C)C)CC4)c3[nH]2)N1C [I-44]
0.1 to 10 | 10 to 30 | 10 to 30 | 0.01 to 100 | 0.01 to 100 | Cc1cccnc1[C@@H]1CCC[C@H](c2nc3ccccc3n2CC2CCCNC2)N1C (stereo partly drawn) [I-12, 2-((2R,6S)-1-methyl-6-(3-methylpyridin-2-yl)piperidin-2-yl)-1-(piperidin-3-ylmethyl)-1H-benzo[d]imidazole]
10 to 30 | 0.1 to 10 | 0.1 to 10 | 0.01 to 100 | 100 to 1000 | CC(C)c1cccnc1[C@@H]1CCC[C@H](c2nc3cccc(N4CCN(C)CC4)c3[nH]2)N1C [I-49]
10 to 30 | 10 to 30 | 0.1 to 10 | 100 to 1000 | ≥ 1000 | Cc1cccnc1[C@@H]1CCC[C@H](c2ncc[nH]2)N1Cc1ccccc1-n1cccn1 [I-166]
10 to 30 | 10 to 30 | 0.1 to 10 | 0.01 to 100 | 100 to 1000 | CN1CCC(n2c([C@H]3CCC[C@@H](c4ccccn4)N3)nc3ccccc32)CC1 [I-154]
10 to 30 | 10 to 30 | 0.1 to 10 | 0.01 to 100 | ≥ 1000 | CN(C)C1CCN(c2cccc3nc([C@H]4CCC[C@@H](c5ncccc5Cl)N4C)[nH]c23)CC1 [I-97]
10 to 30 | 10 to 30 | 0.1 to 10 | 100 to 1000 | ≥ 1000 | Cc1ccnc([C@@H]2CCC[C@H](c3nc4cccc(N5CCN(C)CC5)c4[nH]3)N2C)c1 [I-71]
> 30 | > 30 | 0.1 to 10 | ≥ 1000 | ≥ 1000 | Cc1cccnc1[C@@H]1CCC[C@H](c2nccn2Cc2ccccc2-n2cccn2)N1 [I-167]
0.1 to 10 | 10 to 30 | > 30 | 0.01 to 100 | 0.01 to 100 | Cc1cccnc1[C@@H]1CCC[C@H](c2nc3cccc(C4CCNCC4)c3[nH]2)N1C [I-11, 2-((2R,6S)-1-methyl-6-(3-methylpyridin-2-yl)piperidin-2-yl)-7-(piperidin-4-yl)-1H-benzo[d]imidazole]
10 to 30 | 10 to 30 | 0.1 to 10 | 0.01 to 100 | 100 to 1000 | CN1CCN(c2cccc3nc([C@H]4CCC[C@@H](c5ccccn5)N4C)[nH]c23)CC1 [I-29, 2-((2R,6S)-1-methyl-6-(pyridin-2-yl)piperidin-2-yl)-7-(4-methylpiperazin-1-yl)-1H-benzo[d]imidazole]
10 to 30 | 10 to 30 | 0.1 to 10 | 0.01 to 100 | 0.01 to 100 | CN1CCN(c2cccc3nc([C@H]4CCC[C@@H](c5ncccc5C5CC5)N4C)[nH]c23)CC1 (stereo in doubt) [I-61]
0.1 to 10 | 10 to 30 | 0.1 to 10 | 0.01 to 100 | 100 to 1000 | Cc1cccnc1[C@@H]1CCC[C@H](c2nccn2CCCN(C)C)N1C [I-165, N,N-dimethyl-3-(2-((2R,6S)-1-methyl-6-(3-methylpyridin-2-yl)piperidin-2-yl)-1H-imidazol-1-yl)propan-1-amine]
10 to 30 | 10 to 30 | 0.1 to 10 | 0.01 to 100 | 0.01 to 100 | Cc1cccnc1[C@@H]1CCC[C@H](c2nc3cccc(N4CCN(C)C(C)(C)C4)c3[nH]2)N1C [I-55]
10 to 30 | 10 to 30 | 0.1 to 10 | 0.01 to 100 | ≥ 1000 | CN1CCN(c2cccc3nc([C@H]4CCC[C@@H](c5ncccc5Cl)N4)[nH]c23)CC12CC2 [I-133]
0.1 to 10 | 10 to 30 | 0.1 to 10 | 0.01 to 100 | 100 to 1000 | Cc1cccnc1[C@@H]1CCC[C@H](c2nc3cccc(N4CC5CC4CN5C)c3[nH]2)N1C (stereo partly shown) [I-110]
0.1 to 10 | 0.1 to 10 | 0.1 to 10 | 0.01 to 100 | 100 to 1000 | Cc1ccnc([C@@H]2CCC[C@H](c3nc4cccc(N5CCN(C)CC5)c4[nH]3)N2C)c1C [I-115]
10 to 30 | 10 to 30 | 0.1 to 10 | 0.01 to 100 | 0.01 to 100 | CN1[C@@H](c2nc3cccc(N4CCN5CCCC5C4)c3[nH]2)CCC[C@H]1c1ncccc1Cl (stereo partly shown) [I-150]

Structure (SMILES) | Papp A→B at 90 min, 10 μM (in vitro) [×10⁻⁶ cm/s] | Papp B→A at 90 min, 10 μM (in vitro) [×10⁻⁶ cm/s] | efflux ratio at 90 min, 10 μM (in vitro) | IC50 [1] [nM] | IC50 [2] [nM]
Cc1cccnc1[C@@H]1CCC[C@H](c2nc3cccc(N4C5CCC4CN(C)C5)c3[nH]2)N1C [I-57] | 10 to 30 | 10 to 30 | 0.1 to 10 | 0.01 to 100 | 0.01 to 100
CN1C2CCC1CN(c1cccc3nc([C@H]4CCC[C@@H](c5ncccc5Cl)N4)[nH]c13)C2 [I-119] | 10 to 30 | 10 to 30 | 0.1 to 10 | 0.01 to 100 | 100 to 1000
